≈ marks a conversion by molar mass, not a printed value. Where two headings read alike, the source gives them in different places.
Experiments:
[1] = system: viral DNA polymerase; settings: cited from earlier work
[2] = system: CMV-infected cells; settings: cited from earlier work
[3] = cited from earlier work
[4] = cited from earlier work; remark: listed apart in the source
[5] = system: LLC-PK1 cells; experiment: MTT-assay; settings: 10 mg/mL RBV, after 5 h, found to be toxic
[6] = system: YFV; experiment: microbe, parasite or virus in culture; type: cell-based; settings: Yellow fever virus, Vero, 120 h, read-out: EC50 for inhibition of RNA synthesis [EC50 RNA]
[7] = system: influenza; settings: therapy started within 48 hours of the onset of symptoms; cited from earlier work
[8] = Pharmacokinetics of sodium fluorescein after intravenous bolus; settings: rats, 1 mg intravenous bolus
[9] = system: LLC-PK1 cells; experiment: Cell uptake and localization on coverslips, fluorescence microscope; type: cell-based, porcine; settings: FIG. 1
Procedure: (§1) Cells with a known expression of the DTR were used from several species and origins, including porcine kidney epithelial cells (LLC-PK1), bovine brain capillary endothelial cells (BCEC), monkey kidney fibroblast cells (COS-1), and human glioblastoma cells. In particular, LLC-PK1 cells were incubated for 1 h in 24-wells plates on 400 microliter DMEM+FCS supplemented with 100 microgram/ml heparin, before 5 microgram CRM197-FITC or HRP-FITC was added to the well. Two hours later the cells were washed 3 times and the cells were lysated in 100 microliter 0.1 N NaOH, and fluorescence was determined at 480/530 nm in a fluostar plate reader. Cell protein per well was determined with a Biorad DC assay and fluorescence in the cell lysate was calculated per mg cell protein. In a separate group of cells, an access of 100 microgram free CRM197 was added to the well, 30 minutes before the CRM197-FITC conjugate was added to the medium. […] In a separate set of experiments, LLC-PK1 cells were cultured in similar conditions on coverslips and exposed to CRM197-FITC, HRP-FITC or sodium fluorescein. After fixation and mounting with vectashield with DAPI for nuclear staining, the coverslips were analyzed on a fluorescence microscope and photographed. […] Identical results were found on BCEC, COS-1 and human glioblastoma cells, also after several time points (up to 24 hours after exposure).

[10] = biological target: diphtheria toxin receptor (DTR) expressed on LLC-PK1 cells (porcine kidney epithelial cells) (porcine) (UniProt Q01580); experiment: cell-based or functional assay
[11] = Plasma pharmacokinetics of FITC-labelled protein after intravenous bolus; settings: hamster, i.v. 1 mg FITC-labelled protein, calculated sixty minutes after injection
[12] = Biodistribution of FITC conjugates; settings: hamster, 90 minutes after i.v. injection, FIG. 4
[13] = biological target: T1, DTR expressed on LLC-PK1 cells (Sus scrofa, UniProt Q01580); experiment: Receptor-specific cell uptake, fluorescence in cell lysate; type: cell-based, porcine; settings: LLC-PK1, 5 microgram per well, 2 hours
T1 construct: Cells with a known expression of the DTR were used from several species and origins; endogenous in cells; host or cells: LLC-PK1 (porcine kidney epithelial cells)
Procedure: as §1

[14] = biological target: T2, HRP-PEG-liposomes (UniProt P00433 31-338); experiment: fluorescence microscopy of LLC-PK1 cells after 4 hours incubation
T2 sequence (looked up): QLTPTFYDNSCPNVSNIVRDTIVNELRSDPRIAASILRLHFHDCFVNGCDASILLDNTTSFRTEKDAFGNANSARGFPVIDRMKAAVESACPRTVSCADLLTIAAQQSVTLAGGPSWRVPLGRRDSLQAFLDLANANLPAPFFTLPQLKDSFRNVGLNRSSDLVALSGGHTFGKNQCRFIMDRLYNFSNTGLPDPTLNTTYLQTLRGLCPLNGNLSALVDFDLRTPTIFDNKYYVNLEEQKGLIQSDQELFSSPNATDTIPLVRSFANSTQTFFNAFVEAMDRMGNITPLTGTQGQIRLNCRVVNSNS

[15] = biological target: T3, HRP-FITC (horseradish peroxidase labelled with FITC) (UniProt P00433 31-338); experiment: uptake by LLC-PK1 cells for 2 h, fluorescence of the cell lysate; fluorescence microscopy also showed no signal
T3 construct: also called HRP-FITC conjugate
T3 sequence (looked up): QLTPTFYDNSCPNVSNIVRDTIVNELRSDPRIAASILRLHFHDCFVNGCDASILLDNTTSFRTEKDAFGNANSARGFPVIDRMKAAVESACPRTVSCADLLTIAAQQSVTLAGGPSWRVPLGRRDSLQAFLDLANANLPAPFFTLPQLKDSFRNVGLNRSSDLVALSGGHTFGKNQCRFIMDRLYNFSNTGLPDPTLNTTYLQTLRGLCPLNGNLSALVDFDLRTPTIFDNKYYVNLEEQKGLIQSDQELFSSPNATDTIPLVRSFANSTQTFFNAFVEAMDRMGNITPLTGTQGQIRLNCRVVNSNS

[16] = biological target: T3, HRP-FITC (horseradish peroxidase …); experiment: fluorescence microscopy of cells on coverslips
[17] = 500 mg of probenecid every six hours

Nc1nc2c(ncn2COCCOP(=O)(O)OP(=O)(O)OP(=O)(O)O)c(=O)[nH]1 [Aciclo-GTP]
affinity to viral relative to cellular polymerase [1]: approximately 100 times
half-life compared to GCV-TP in infected cells [2]: four- to five-fold shorter

Nc1nc2c(ncn2COCCO)c(=O)[nH]1 [Aciclovir]
water solubility [3]: poorly water soluble
protein binding in plasma ([4]; in vivo): 30%
oral bioavailability [4]: 10-20%
time of peak plasma concentration ([4]; orally administered): 1 to 2 h

CCOC(=O)C1=C[C@@H](OC(CC)CC)[C@H](NC(C)=O)[C@@H](N)C1 [Oseltamivir, (3R,4R,5S)-4-acetylamino-5-amino-3-(1-ethylpropoxy)-1-cyclohexene-1-carboxylic acid ethyl ester]
change of half-life with probenecid [4, 17]: doubled
change of peak plasma concentration (Cmax) with probenecid [4, 17]: doubled
increase of overall systemic exposure (AUC) with probenecid [4, 17]: 2.5 fold
(elimination) half-life ([4]; in vivo): 6 to 10 h
oral bioavailability [4]: 75%

NC(=O)c1ncn([C@@H]2O[C@H](CO)[C@@H](O)[C@H]2O)n1 [RBV, 1-beta-D-ribofuranosyl-1,2,4-triazole-3-carboxamide]
cell viability [5]: 60%
absorption from the GI tract with a fatty meal ([4]; fatty meal): about 75%
absorption from the GI tract ([4]; in vivo): about 45%
fraction of absorbed drug excreted into the urine unchanged ([4]; in vivo): About a third
mean half-life for multiple doses in the body ([4]; multiple doses): about 12 days
half-life after single dose ([4]; single dose): 0.5 h
EC50 [6]: 12.3 ± 5.6 µg/mL (≈ 50.4 µM)

CC(=O)NC1C(NC(=N)N)C=C(C(=O)O)OC1C(O)C(O)CO (centres unmarked) [Zanamivir, 5-acetamido-4-guanidino-6-(1,2,3-trihydroxypropyl)-5,6-dihydro-4H-pyran-2-carboxylic acid]
reduction of time to symptom resolution [7]: 1.5 days
(elimination) half-life ([4]; in vivo): 2.5 to 5.1 h
protein binding in plasma ([4]; in vivo): < 10%
oral bioavailability [4]: 2%

Nc1nc(O)c2ncn(COC(CO)CO)c2n1 [ganciclovir]
half-life ([4]; depending on renal function): 2 to 6 h
elimination time in end-stage renal disease ([4]; end-stage renal disease): over 24 hours
absorption of the oral form, fasting ([4]; fasting): about 5%
concentration in the central nervous system relative to plasma level ([4]; in vivo): about 50 % of the plasma level
plasma drug eliminated unchanged in the urine ([4]; in vivo): About 90%
oral bioavailability [4]: approximately 5%
absorption of the oral form, with food ([4]; with food): about 8%

O=C([O-])c1ccccc1-c1c2ccc(=O)cc-2oc2cc([O-])ccc12.[Na+].[Na+] [sodium fluorescein]
AUC [8]: 13 microgram*min/ml
half-life [8]: 0.583 h
fluorescence signal / uptake in cells [9]: No fluorescence signal was found

CRM197-FITC conjugate (from UniProt P00588 33-567) (ligand)
cell uptake: CRM197-FITC in the cell lysate per mg cell protein after 2 hours (microgram per mg cell protein) [10]: 0.54

HRP-FITC: horseradish peroxidase (HRP) labelled with FITC as a control protein
plasma half-life [11]: 0.633 h
accumulation in tissues (brain, heart, lung, liver, spleen, kidney) [12]: not (or hardly) detectable in these tissues
fluorescence signal / uptake in cells [9]: No fluorescence signal was found
conjugate found in the cell lysates [13]: No HRP-FITC was found

B1: diphtheria toxin receptor (DTR) expressed on LLC-PK1 cells (porcine kidney epithelial cells) (receptor, UniProt Q01580 63-148, looked up)
chain: DLEEADLDLLRADFSSKPQALATPSKEERGKRKKKGKGLGKKRDPCLRKYKDFCIHGECKYVKELRAPSCICHPGYHGERCHGLSL
notes: whole, on cells; also called HB-EGF
binding result [14]: no binding
binding result [15]: no binding

B2: diphtheria toxin receptor (DTR) on human glioblastoma cells (receptor, UniProt Q99075 63-148, looked up)
chain: DLQEADLDLLRVTLSSKPQALATPNKEEHGKRKKKGKGLGKKRDPCLRKYKDFCIHGECKYVKELRAPSCICHPGYHGERCHGLSL
notes: whole, on cells; also called HB-EGF precursor
binding result [16]: no binding

B3: diphtheria toxin receptor (DTR) on bovine brain capillary endothelial cells (BCEC) (receptor)
chain: DLEEANLDLFRAAFSSKPQALATPSKEERGKRKKKGKGLGKKRNPCLRRYKDFCIHGECKYVKELRVPTCICHPGYHGERCHGLSL
notes: as for B2
binding result [16]: no binding

From patent US20150290234A1, “TARGETED INTRACELLULAR DELIVERY OF ANTIVIRAL AGENTS” (BBB Holding B.V., priority 2007, published 2015)
